Experimental data reported in ChEMBL document CHEMBL6103633 (J Med Chem, 2025).
The source made the active and inactive calls. No cut-off for these calls is given here.

Experiments:
[1] = Cytotoxicity against Normal primary human neonatal fibroblast cell at 500 uM incubated for 72 hrs by SRB assay relative to control; format: toxicity, cell-based
[2] = target: T1, Ornithine decarboxylase (Homo sapiens) (UniProt P11926); assay: Inhibition of ODC in human Kelly cells at 500 uM incubated for 2 hrs by liquid scintillation analysis; format: cell-based
T1 sequence (whole entry): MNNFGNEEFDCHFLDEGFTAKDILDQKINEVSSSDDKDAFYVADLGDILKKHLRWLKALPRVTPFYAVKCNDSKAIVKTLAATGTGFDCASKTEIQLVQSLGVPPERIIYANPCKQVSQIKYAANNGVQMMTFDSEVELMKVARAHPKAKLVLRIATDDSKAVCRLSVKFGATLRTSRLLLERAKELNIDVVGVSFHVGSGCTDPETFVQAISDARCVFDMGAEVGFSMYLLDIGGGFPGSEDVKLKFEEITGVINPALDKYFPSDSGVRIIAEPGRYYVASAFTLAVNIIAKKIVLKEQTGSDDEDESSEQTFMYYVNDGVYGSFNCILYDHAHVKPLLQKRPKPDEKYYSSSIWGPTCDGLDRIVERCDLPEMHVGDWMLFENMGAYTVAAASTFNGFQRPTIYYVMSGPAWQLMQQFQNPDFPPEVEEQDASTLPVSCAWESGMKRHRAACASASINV

[3] = target: T1, Ornithine decarboxylase (Homo sapiens); assay: Inhibition of ODC in human Kelly cells assessed as reduction in spermidine level at 500 microM incubated for 20 min by HPLC analysis; format: cell-based
[4] = target: T1, Ornithine decarboxylase (Homo sapiens); assay: Inhibition of human ODC in human Kelly cells assessed as reduction in spermine level at 500 microM incubated for 20 min by HPLC analysis; format: cell-based
[5] = target: T1, Ornithine decarboxylase (Homo sapiens); assay: Inhibition of human ODC in human Kelly cells assessed as effect on putrescine level at 500 microM incubated for 20 min by HPLC analysis; format: cell-based
[6] = target: T1, Ornithine decarboxylase (Homo sapiens); assay: Inhibition of full length C-terminal his-6 tagged human ODC extracted from Escherichia coli BL21 (DE3) cells at 50 uM incubated for 30 mins by liquid scintillation analysis relative to control
[7] = Dissociation constant, pKa of the compound; format: physicochemical

Row | inhibition [2] | inhibition [3] | inhibition [4] | inhibition [5] | SMILES | other results
1 | Active | Active | Active | inactive | NCCCON | –
2 | Active | Active | Active | inactive | NOCC1(F)CCNC1 (racemic) | –

Further lines, the compound ahead of its results:

Row | SMILES | inhibition [2] | inhibition [3] | inhibition [4] | inhibition [5] | other results
3 | NOC[C@@H]1CCCNC1 | – | – | – | – | Activity [1]: 0%
4 | NOC[C@H]1CCCNC1 | – | – | – | – | Activity [1]: 0%
5 | NOCC1CNC1 | – | – | – | – | inhibition [6]: 0%
6 | Cc1ncc(COP(=O)(O)O)c(/C=N/OCCCN)c1O | – | – | – | – | pKa [7]: ~5.9
7 | NCCC[C@](N)(C(=O)O)C(F)F | Active | Active | Active | inactive | –
